Test results published in publication PMC6254723, “Synthesis and Pharmacological Screening of Several Aroyl and Heteroaroyl Selenylacetic Acid Derivatives as Cytotoxic and Antiproliferative Agents” (Molecules, 2009).
Read-outs that look alike come from different tables or passages of the source.

Test system: PC-3 cell line
Assay: MTT cytotoxicity assay in PC-3
Protocol: The results are tabulated as IC50 values. All experiments were independently performed at least three times and the values were calculated after 72 hours exposure (drug concentrations of 2, 5, 7 and 10 μM).
PC-3 cells were seeded in 96-well plates (Millipore, Eschborn, Germany) at a density of 5 × 10^3 cells per well. The samples were incubated at 37 °C under 5% CO2 overnight prior to the addition of the compounds. Compounds were diluted in complete medium. After 3 days of incubation, 10 μL MTT solution (5 mg/mL in PBS) was added to the cells in each well and these were stored for an additional 4 h at 37 °C. […] The percentage of viable cells was calculated to obtain IC50-values.
PC-3 are human tumorigenic and metastatic prostate cancer cells and these were obtained from American Type Culture Collection (ATCC, Manassas, VA, USA) (passage 36).

[1] = Homo sapiens, PC-3, 72 h, read-out: IC50 PC-3 cell line
[2] = Homo sapiens, PC-3, read-out: IC50 (cytotoxic activity in PC-3 cell line)
[3] = 72 h exposure, MTT, drug concentrations 2, 5, 7 and 10 μM, NE = no effect is observed
[4] = read-out: IC50 PC-3 cell line, 72 h exposure, MTT, drug concentrations 2, 5, 7 and 10 μM, NE = no effect is observed

Compound | IC50 [1] [µM] | IC50 [2] [µM] | IC50 PC-3 cell line [3] | IC50 [4] [µM] | IC50 (read-out: IC50 (cytotoxic activity in PC-3 cell line), as repeated in Table 5, NE = no effect) [µM]
O=C(O)C[Se]C(=O)c1ccc(C(F)(F)F)cc1 [Compound 3, (4-trifluoromethylbenzoylselenyl)acetic acid] | > 10 | > 10 | – | – | –
O=C(O)C[Se]C(=O)c1ccc(Cl)cc1 [Compound 4, (4-chlorobenzoylselenyl)acetic acid] | > 10 | > 10 | – | – | –
Cc1ccc(C(=O)[Se]CC(=O)O)cc1 [Compound 5, (4-methylbenzoylselenyl)acetic acid] | > 10 | > 10 | – | – | –
CC(C)(C)c1ccc(C(=O)[Se]CC(=O)O)cc1 [Compound 6, (4-tert-butylbenzoyl-selenyl)acetic acid] | > 10 | > 10 | – | – | –
O=C(O)C[Se]C(=O)c1ccccc1Cl [Compound 8, (2-chlorobenzoylselenyl)acetic acid] | > 10 | > 10 | – | – | –
O=C(O)C[Se]C(=O)c1ccccc1Br [Compound 9, (2-bromobenzoylselenyl)acetic acid] | > 10 | > 10 | – | – | –
O=C(O)C[Se]C(=O)c1ccccc1I [Compound 10, (2-iodobenzoylselenyl)acetic acid] | > 10 | > 10 | – | – | –
O=C(O)C[Se]C(=O)c1cc(Cl)cc(Cl)c1 [Compound 13, (3,5-dichlorobenzoylselenyl)acetic acid] | > 10 | > 10 | – | – | –
COc1cc(C(=O)[Se]CC(=O)O)cc(OC)c1OC [Compound 15, (3,4,5-trimethoxybenzoylselenyl)acetic acid] | > 10 | > 10 | suppression of the antitumour activity | – | –
O=C(O)C[Se]C(=O)c1ccc2c(c1)OCO2 [Compound 16, (3,4-methylenedioxy-benzoylselenyl) acetic acid] | > 10 | > 10 | – | – | –
O=C(O)C[Se]C(=O)c1ccc2ccccc2c1 [Compound 17, (2-naphthoylselenyl)acetic acid] | > 10 | – | – | – | –
O=C(O)C[Se]C(=O)C(c1ccccc1)c1ccccc1 [Compound 18, (diphenylacetylselenyl)acetic acid] | > 10 | – | – | – | –
O=C(O)C[Se]C(=O)c1ccncc1 [Compound 19, (4-pyridoylselenyl)acetic acid] | > 10 | > 10 | – | – | –
O=C(O)C[Se]C(=O)c1cccnc1 [Compound 20, (3-pyridoylselenyl)acetic acid] | > 10 | > 10 | – | – | –
CCCSc1ncccc1C(=O)[Se]CC(=O)O [Compound 22, (3-(2-propylthio)pyridoylselenyl)acetic acid] | > 10 | > 10 | – | – | –
O=C(O)C[Se]C(=O)c1cccs1 [Compound 23, (2-thienoylselenyl)-acetic acid] | > 10 | > 10 | – | – | –
O=C(O)C[Se]C(=O)c1cnccn1 [Compound 24, (pyrazinoylselenyl)acetic acid] | > 10 | > 10 | – | – | –
O=C(O)C[Se]C(=O)c1ccc2ccccc2n1 [Compound 25, (2-quinoloylselenyl)acetic acid] | > 10 | – | – | – | –
O=C(O)C[Se]C(=O)c1cnc2ccccc2c1 [Compound 26, (3-quinoloylselenyl)acetic acid] | > 10 | – | – | – | –
(3-phenyl-propanonylselenyl)acetic acid [Compound 12] | – | – | – | > 10 | –
(4-methoxyphenylselenyl)acetic acid [Compound 7] | – | – | inactive | > 10 | > 10
